The assay addresses T1, human CCR6 (Homo sapiens, UniProt P51684).
T1 construct: expressed in transfected cells; host or cells: Ba/F3 cells (mouse pro-B line)
T1 sequence (P51684 1-374): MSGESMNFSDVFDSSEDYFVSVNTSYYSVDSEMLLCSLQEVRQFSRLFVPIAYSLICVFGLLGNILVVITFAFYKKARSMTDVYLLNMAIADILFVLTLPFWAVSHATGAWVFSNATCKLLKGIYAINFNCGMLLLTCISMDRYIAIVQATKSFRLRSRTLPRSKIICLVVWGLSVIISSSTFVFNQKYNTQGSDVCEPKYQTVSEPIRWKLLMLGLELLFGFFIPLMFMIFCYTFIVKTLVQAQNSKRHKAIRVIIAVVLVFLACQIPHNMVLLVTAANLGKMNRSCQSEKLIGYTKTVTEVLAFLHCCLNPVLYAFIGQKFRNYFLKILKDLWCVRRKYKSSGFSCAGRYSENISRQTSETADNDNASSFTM
Briefly: Migration assay (chemotaxis, ChemoTX). The format is cell-based. As to conditions: hCCR6-transfected Ba/F3 cells in human serum, migration to recombinant human CCL20 10 nM, 37° C. 45 minutes; read-out: Potency (IC50 value in the migration assay). Summed up:
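Ba/F3 cells transfected with human CCR6 and butyrate-primed for 24 h were suspended at 4 million/ml in human serum with compound, serially diluted from a 1 μM final top concentration. Cells migrated through a 5-μm polycarbonate membrane toward 10 nM human CCL20 for 45 min at 37 °C. Migrated cells were quantified by CyQUANT fluorescence.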

SMILES strings stand for the structures.

As to `O=C1CN(c2ccc(-c3ccc(S(=O)(=O)N4CC[C@@H](Nc5ccc(C(F)(F)F)cn5)[C@@H](O)C4)cc3)cn2)CCN1` [Compound 178], the IC50 was below 1 nM. As for `O=S(=O)(c1ccc(-c2ccnc(NC3CCC3)c2)cc1)N1CC[C@@H](Nc2ccc(C(F)(F)F)cn2)[C@@H](O)C1` [Compound 140], the figure is below 1 nM; as for `O=S(=O)(c1ccc(-c2ccc(NC3CCC3)nc2)cc1)N1CC[C@@H](Nc2ccc(C(F)(F)F)cn2)[C@@H](O)C1` [Compound 103], 1 to 10 nM.

For the compound `CNC(=O)c1cc(-c2ccc(S(=O)(=O)N3CC[C@@H](Nc4ccc(C(F)(F)F)cn4)[C@@H](O)C3)cc2)ccn1` [Example 50, 4-(4-(((3S,4R)-3-hydroxy-4-((5-(trifluoromethyl)pyridin-2-yl)amino)piperidin-1-yl)sulfonyl)phenyl)-N-methylpicolinamide], the IC50 is below 1 nM. In the case of `Cc1cc(-c2ccc(S(=O)(=O)N3CC[C@@H](Nc4ccc(C(F)(F)F)cn4)[C@@H](O)C3)cc2)cc2c1C(=O)NC2` [Compound 78, 5-(4-(((3S,4R)-3-hydroxy-4-((5-(trifluoromethyl)pyridin-2-yl)amino)piperidin-1-yl)sulfonyl)phenyl)-7-methylisoindolin-1-one] it was below 1 nM; in that of `O=S(=O)(c1ccc(-c2cnc3[nH]ccc3c2C(F)(F)F)cc1)N1CC[C@@H](Nc2ccc(C(F)(F)F)cn2)[C@@H](O)C1` [Example 22, (3S,4R)-1-((4-(4-(trifluoromethyl)-1H-pyrrolo[2,3-b]pyridin-5-yl)phenyl)sulfonyl)-4-((5-(trifluoromethyl)pyridin-2-yl)amino)piperidin-3-ol], below 1 nM. In the case of `Nc1n[nH]c2ncc(-c3ccc(S(=O)(=O)N4CC[C@@H](Nc5ccc(C(F)(F)F)cn5)[C@@H](O)C4)cc3)cc12` [Example 38, (3S,4R)-1-((4-(3-amino-1H-pyrazolo[3,4-b]pyridin-5-yl)phenyl)sulfonyl)-4-((5-(trifluoromethyl)pyridin-2-yl)amino)piperidin-3-ol], the IC50 is below 1 nM. In the case of `CNc1cc(-c2ccc(S(=O)(=O)N3CC[C@@H](Nc4ccc(C(F)(F)F)cn4)[C@@H](O)C3)cc2)ccn1` [Compound 125] it was 1 to 10 nM; in that of `O=C1Cc2ccc(-c3ccc(S(=O)(=O)N4CC[C@@H](Nc5ccc(C(F)(F)F)cn5)[C@@H](O)C4)cc3)cc2CN1` [Example 8, 7-(4-(((3S,4R)-3-hydroxy-4-((5-(trifluoromethyl)pyridin-2-yl)amino)piperidin-1-yl)sulfonyl)phenyl)-1,4-dihydroisoquinolin-3(2H)-one], below 1 nM. As for `CN(C)CCN(C)c1ccc(-c2ccc(S(=O)(=O)N3CC[C@@H](Nc4ccc(C(F)(F)F)cn4)[C@@H](O)C3)cc2)cn1` [Compound 101], the figure is 10 to 1000 nM. As to `COc1c(-c2ccc(S(=O)(=O)N3CC[C@@H](Nc4ccc(C(F)(F)F)cn4)[C@@H](O)C3)cc2)cnc2[nH]cc(C#N)c12` [Compound 118], the IC50 was below 1 nM. In the case of `COC1CN(c2ccc(-c3ccc(S(=O)(=O)N4CC[C@@H](Nc5ccc(C(F)(F)F)cn5)[C@@H](O)C4)cc3)cn2)C1` [Compound 95] it was 1 to 10 nM. As for `Cc1cc(-c2ccc(S(=O)(=O)N3CC[C@@H](Nc4ccc(C(F)(F)F)cn4)[C@@H](O)C3)cc2)cc(C(N)=O)n1` [Compound 206], the figure is below 1 nM; as for `CN(c1cc(-c2ccc(S(=O)(=O)N3CC[C@@H](Nc4ccc(C(F)(F)F)cn4)[C@@H](O)C3)cc2)ccn1)C1CCC1` [Compound 130], below 1 nM; as for `Cc1cnccc1-c1ccc(S(=O)(=O)N2CC[C@@H](Nc3ccc(C(F)(F)F)cn3)[C@@H](O)C2)cc1` [Compound 164], below 1 nM. In the case of `O=C1CN(c2cc(-c3ccc(S(=O)(=O)N4CC[C@@H](Nc5ccc(C(F)(F)F)cn5)[C@@H](O)C4)cc3)ccn2)CCN1` [Compound 173] it was below 1 nM.
